Laboratory results taken from patent US10822337B2, “TGF-β inhibitorC” (Rigel Pharmaceuticals, Inc., priority 2015, dated 2020).

Tests used:
[1] = system: GDF8 signaling (GDF pSMAD, MPC11); test: AlphaScreen SureFire SMAD3 (p-Ser423/425) assay, inhibition of GDF8 signaling; type: cell-based; settings: Mus musculus, MPC-11, p-SMAD-3 (Ser423/425) in cell lysate after GDF8 stimulation
Source text: (§1) Example 2: AlphaScreen® SureFire® SMAD3 (p-Ser423/425) Assay
(§2) The p-SMAD-3 (Ser423/425) SureFire® assay has been designed to measure the phosphorylation of endogenous cellular p-SMAD-3 (Ser423/425) in cell lysates and is a system for the screening of both modulators of receptor activation (e.g. agonists and antagonists) as well as agents acting intracellularly, such as small molecule inhibitors of upstream events. The assay will measure p-SMAD-3 (Ser423/425) activation by either cloned or endogenous receptors, and can be applied to primary cells.
(§3) 1× Lysis buffer: 1 ml of 5× Lysis buffer was diluted with 4 ml of sterile water. After dilution, excess 1× Lysis buffer can be frozen and thawed up to 5 times without loss in activity.
(§4) P-SMAD-3 (Ser423/425) SureFire® Assay Protocols
(§5) Step A: Preparation of Buffers
(§6) Activation buffer: The buffer was warmed slowly to 37° C. and gently mixed to re-suspend. Activation buffer can be stored at room temperature with no loss in activity.
(§7) Reaction buffer: The buffer was kept at 4° C. while in use.
(§8) AlphaScreen® Protein A IgG Kit: The kit was stored at 4° C. in the dark.
(§9) Reaction buffer+Activation buffer+AlphaScreen® Acceptor beads: Reaction buffer (40 parts), Activation Buffer (10 parts) and Acceptor beads (1 part) were mixed and the mixture was stored at room temperature and used the same day. Mixture was added to 384-well plates; excess mixturewas discarded.
(§10) Dilution buffer+AlphaScreen® Donor beads: Dilution buffer (20 parts) and Donor beads (1 part) were mixed and the mixture was stored at room temperature and used the same day. Excess mixture was discarded.
(§11) Assay control samples: After reconstitution in 250 μl of water, lysates were at −20° C. in single use aliquots.
(§12) Step B: Preparation of Samples and Cells
(§13) 96-well Assay Protocol for 293FT and RMS13 adherent cells can be carried out manually or in high throughput with liquid handling robots.
(§14) The cells (80 μL of cells for 96 well plates) were plated in collagen coated tissue culture plates in RPMI or FreeStyle medium (Invitrogen) and incubated overnight. For manual analysis, 6 plates for GDF8, 6 plates for TGFβ, and optionally 6 plates for Alk5ca(ALKS constitutively active) were used.
(§15) The compound dilution plates were prepared as follows: 12 μL of DMSO was transferred into first column of 96-well plate, and 16 μL of DMSO was transferred into columns 2-12 of the 96-well plate. 12 μL of compound solution was transferred into first column of the DMSO-containing 96-well plate. Three-fold dilution was performed up to column 10 of the DMSO-containing 96-well plate.
(§16) Step C: Treatment and Analysis
(§17) The plate containing cells were treated with compounds for about 10 minutes, and then ligand was added. GDF8 or TGFb was added to plates to stimulate. 293FL cells were stimulatedfor 90 minutes at 37° C.; and RMS13 cells were stimulated for 60 minutes at 37° C. The medium was then removed from the cells, and 1× Lysis Buffer (about 25 μL) was added and the plate was gently agitated on plate shaker for 5-10 minutes.
(§18) The lysate (5 μL) was then placed into 384-well shallow plates avoiding the generation of bubbles. To this, the Reaction Buffer+Activation Buffer+AlphaScreen® Acceptor beadsmixture (5 μL) was added. The plate was sealed with adhesive cover and shielded from light (e.g., with metal foil), and agitated gently on plate shaker for 2 hours at room temperature.
(§19) Dilution buffer+AlphaScreen® Donor beads (2 μL) was then added, and the plate was intubated on the plate shaker for an additional 1½ hours. After completion, the plate was read on Synergy-4 or Enspire plate reader, using AlphaScreen® pSMAD3® settings.
(§20) Representative results for inhibition of GDF8 (data=GDF pSMAD (MPC11) (μM)) and TGF-β (data=TGF-β pSMAD (MPC-11) (μM)) signaling are shown in Table 1: […]

[2] = system: TGF-β signaling (TGF-β pSMAD, MPC-11); test: AlphaScreen SureFire SMAD3 (p-Ser423/425) assay, inhibition of TGF-β signaling; type: cell-based; settings: Mus musculus, p-SMAD-3 (Ser423/425) in cell lysate after TGF-β stimulation
Source text: as §1, §2, §3, §4, §5, §6, §7, §8, §9, §10, §11, §12, §13, §14, §15, §16, §17, §18, §19, §20

IC50 [1] [µM] | IC50 [2] [µM] | Compound
0.0686 | 0.214 | Cn1cnc2ccc(-c3c(-c4cccc(C(F)(F)F)c4)nn4c3OCC4)cc21 [Compound 60, 7-(1-Methyl-1H-benzo[d]imidazol-6-yl)-6-(3-trifluoromethylphenyl)-1,2-dihydropyrazolo[5,1-b]oxazole]
0.13 | 0.456 | FC(F)(F)c1cccc(-c2nn3c(c2-c2ccc4nccn4c2)OCC3)c1 [Compound 61, 7-(Imidazo[1,2-a]pyridin-6-yl)-6-(3-trifluoromethylphenyl)-2,3-dihydropyrazolo[5,1-b]oxazole]
0.272 | 0.787 | FC(F)(F)c1cccc(-c2nn3c(c2-c2ccc4ncsc4c2)OCC3)c1 [Compound 62, 7-(Benzo[d]thiazol-6-yl)-6-(3-trifluoromethylphenyl)-2,3-dihydropyrazolo[5,1-b]oxazole]
1.99 | 6.03 | FC(F)(F)c1cccc(-c2nn3c(c2-c2ccc4ncccc4c2)OCC3)c1 [Compound 63, 7-(Quinolin-6-yl)-6-(3-trifluoromethylphenyl)-2,3-dihydropyrazolo[5,1-b]oxazole]
0.337 | 1.48 | FC(F)(F)c1cccc(-c2nn3c(c2-c2ccc4nccnc4c2)OCC3)c1 [Compound 64, 7-(Quinoxalin-6-yl)-6-(3-trifluoromethylphenyl)-2,3-dihydropyrazolo[5,1-b]oxazole]
0.143 | 0.881 | Fc1ccc(-c2nn3c(c2-c2ccc4cn[nH]c4c2)OCC3)cc1 [Compound 65, 6-(4-Fluorophenyl)-7-(1H-indazol-6-yl)-2,3-dihydropyrazolo[5,1-b]oxazole]
0.331 | 2.64 | Fc1ccc(-c2nn3c(c2-c2ccc4nccn4c2)OCC3)cc1 [Compound 67, 6-(4-Fluorophenyl)-7-(imidazo[1,2-a]pyridin-6-yl)-2,3-dihydropyrazolo[5,1-b]oxazole]
0.332 | 1.1 | Fc1ccc(-c2nn3c(c2-c2ccc4ncsc4c2)OCC3)cc1 [Compound 68, 7-(Benzo[d]thiazol-6-yl)-6-(4-fluorophenyl)-2,3-dihydropyrazolo[5,1-b]oxazole]
1.26 | 7.81 | Fc1ccc(-c2nn3c(c2-c2ccc4ncccc4c2)OCC3)cc1 [Compound 69, 6-(4-Fluorophenyl)-7-(quinolin-6-yl)-2,3-dihydropyrazolo[5,1-b]oxazole]
0.399 | 1.37 | Fc1ccc(-c2nn3c(c2-c2ccc4nccnc4c2)OCC3)cc1 [Compound 70, 6-(4-Fluorophenyl)-7-(quinoxalin-6-yl)-2,3-dihydropyrazolo[5,1-b]oxazole]
0.179 | 0.852 | FC(F)(F)c1cccc(-c2nn3c(c2-c2ccc4cn[nH]c4c2)OCC3)c1 [Compound 71, 7-(1H-Indazol-6-yl)-6-(3-trifluoromethylphenyl)-2,3-dihydropyrazolo[5,1-b]oxazole]
0.233 | 0.664 | COc1cccc(-c2nn3c(c2-c2ccc4ncn(C)c4c2)OCC3)c1 [Compound 72, 6-(3-Methoxyphenyl)-7-(1-methyl-1H-benzo[d]imidazol-6-yl)-2,3-dihydropyrazolo[5,1-b]oxazole]
0.329 | 1.49 | COc1cccc(-c2nn3c(c2-c2ccc4nccn4c2)OCC3)c1 [Compound 73, 7-(Imidazo[1,2-a]pyridin-6-yl)-6-(3-methoxyphenyl)-2,3-dihydropyrazolo[5,1-b]oxazole]
0.243 | 1.04 | COc1cccc(-c2nn3c(c2-c2ccc4ncsc4c2)OCC3)c1 [Compound 74, 7-(Benzo[d]thiazol-6-yl)-6-(3-methoxyphenyl)-2,3-dihydropyrazolo[5,1-b]oxazole]
1.24 | 7.25 | COc1cccc(-c2nn3c(c2-c2ccc4ncccc4c2)OCC3)c1 [Compound 75, 6-(3-Methoxyphenyl)-7-(quinolin-6-yl)-2,3-dihydropyrazolo[5,1-b]oxazole]
0.18 | 0.649 | COc1cccc(-c2nn3c(c2-c2ccc4nccnc4c2)OCC3)c1 [Compound 76, 6-(3-Methoxyphenyl)-7-(quinoxalin-6-yl)-2,3-dihydropyrazolo[5,1-b]oxazole]
0.336 | 1.34 | Fc1cccc(-c2nn3c(c2-c2ccc4[nH]ncc4c2)CCC3)c1 [Compound 77, 5-(2-(3-Fluorophenyl)-5,6-dihydro-4H-pyrrolo[1,2-b]pyrazol-3-yl)-1H-indazole]
0.812 | 2.3 | Fc1cccc(-c2nn3c(c2-c2ccc4cn[nH]c4c2)CCC3)c1 [Compound 78, 6-(2-(3-Fluorophenyl)-5,6-dihydro-4H-pyrrolo[1,2-b]pyrazol-3-yl)-1H-indazole]
0.196 | 0.417 | Cn1cnc2ccc(-c3c(-c4cccc(F)c4)nn4c3CCC4)cc21 [Compound 79, 6-(2-(3-Fluorophenyl)-5,6-dihydro-4H-pyrrolo[1,2-b]pyrazol-3-yl)-1-methyl-1H-benzo[d]imidazole]
0.76 | 2.98 | Fc1cccc(-c2nn3c(c2-c2ccc4nccn4c2)CCC3)c1 [Compound 80, 6-(2-(3-Fluorophenyl)-5,6-dihydro-4H-pyrrolo[1,2-b]pyrazol-3-yl)imidazo[1,2-a]pyridine]
0.375 | 1.87 | Fc1cccc(-c2nn3c(c2-c2ccc4ncsc4c2)CCC3)c1 [Compound 81, 6-(2-(3-Fluorophenyl)-5,6-dihydro-4H-pyrrolo[1,2-b]pyrazol-3-yl)benzo[d]thiazole]
0.33 | 1.95 | Fc1cccc(-c2nn3c(c2-c2ccc4nccnc4c2)CCC3)c1 [Compound 82, 6-(2-(3-Fluorophenyl)-5,6-dihydro-4H-pyrrolo[1,2-b]pyrazol-3-yl)quinoxaline]
0.0704 | 0.517 | Fc1ccc(-c2nn3c(c2-c2ccc4[nH]ncc4c2)CCC3)cc1F [Compound 83, 5-(2-(3,4-Difluorophenyl)-5,6-dihydro-4H-pyrrolo[1,2-b]pyrazol-3-yl)-1H-indazole]
0.326 | 1.61 | Fc1ccc(-c2nn3c(c2-c2ccc4cn[nH]c4c2)CCC3)cc1F [Compound 84, 6-(2-(3,4-Difluorophenyl)-5,6-dihydro-4H-pyrrolo[1,2-b]pyrazol-3-yl)-1H-indazole]
0.106 | 0.251 | Cn1cnc2ccc(-c3c(-c4ccc(F)c(F)c4)nn4c3CCC4)cc21 [Compound 85, 6-(2-(3,4-Difluorophenyl)-5,6-dihydro-4H-pyrrolo[1,2-b]pyrazol-3-yl)-1-methyl-1H-benzo[d]imidazole]
0.272 | 0.926 | Fc1ccc(-c2nn3c(c2-c2ccc4nccn4c2)CCC3)cc1F [Compound 86, 6-(2-(3,4-Difluorophenyl)-5,6-dihydro-4H-pyrrolo[1,2-b]pyrazol-3-yl)imidazo[1,2-a]pyridine]
0.364 | 1.01 | Fc1ccc(-c2nn3c(c2-c2ccc4ncsc4c2)CCC3)cc1F [Compound 87, 6-(2-(3,4-Difluorophenyl)-5,6-dihydro-4H-pyrrolo[1,2-b]pyrazol-3-yl)benzo[d]thiazole]
1.06 | 9.58 | Fc1ccc(-c2nn3c(c2-c2ccc4ncccc4c2)CCC3)cc1F [Compound 88, 6-(2-(3,4-Difluorophenyl)-5,6-dihydro-4H-pyrrolo[1,2-b]pyrazol-3-yl)quinoline]
0.418 | 1.62 | Fc1ccc(-c2nn3c(c2-c2ccc4nccnc4c2)CCC3)cc1F [Compound 89, 6-(2-(3,4-Difluorophenyl)-5,6-dihydro-4H-pyrrolo[1,2-b]pyrazol-3-yl)quinoxaline]
